From ChEMBL document CHEMBL1201862, “PubChem BioAssay data set” (2004)
Blank lines part the entries; values can stand above or below the compound they belong to. The source made the active and inactive calls.

Columns and labels:
[1] = MITF Orthogonal Assay: SK-MEL-5 CTG Assay Measured in Cell-Based System Using Plate Reader - 2084-02_Inhibitor_Dose_DryPowder_Activity_Set5.; type: functional
[2] = MITF Measured in Cell-Based System Using Plate Reader - 2084-01_Inhibitor_Dose_DryPowder_Activity_Set7.; type: functional
[3] = A375 melanoma cell viability loss, dose response, counter-screen for MITF modulator project, CellTiter-Glo luminescence, dry powder, set 9 (AID 651591); type: functional, cell-based; details: A-375
[4] = TRPM1 promoter luciferase reporter signal decrease, dose response, MITF inhibitor project, cell-based, SK-MEL-5, dry powder, set 9 (AID 651588); type: functional
INS1 = assay: beta cell apoptosis inhibitors, cytokine rescue, dose response, luminescence, retest (AID 449756); type: functional, cell-based; details: Rattus norvegicus;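 also: cell death triggered by IL-1 beta plus TNF-alpha plus IFN-gamma mixture; protective hits raise ATP signal compared with cytokine alone wells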
[5] = A375 melanoma cell cytotoxicity, dose response, counter-screen for MITF inhibitor project, CellTiter-Glo luminescence, dry powder, set 7 (AID 624490); type: functional, cell-based; details: A-375
[6] = target: T1, RNA-binding protein pos-1 (Caenorhabditis elegans, UniProt G5EF15); assay: inhibitors of POS-1/mex-3 RNA binding, dose response, biochemical, fluorescence polarization (AID 1964);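 also: purified POS-1 fused to maltose binding protein made in E. coli; potency of compounds blocking POS-1 binding to fluorescent RNA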
T1 sequence (G5EF15 whole entry): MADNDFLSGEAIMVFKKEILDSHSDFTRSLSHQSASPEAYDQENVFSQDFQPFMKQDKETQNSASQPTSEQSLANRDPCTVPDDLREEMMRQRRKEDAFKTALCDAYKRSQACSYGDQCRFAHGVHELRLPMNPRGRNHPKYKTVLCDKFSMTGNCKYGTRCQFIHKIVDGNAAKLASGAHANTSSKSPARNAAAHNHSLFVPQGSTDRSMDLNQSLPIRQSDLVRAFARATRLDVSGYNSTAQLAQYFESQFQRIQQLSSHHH

[7] = growth suppression of beta-catenin-knockout colon cells, dose response, cell-based, HCT116, human colon tumor (AID 1045); type: functional;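 also: HCT116 colon tumor cells with beta catenin knocked out; cells exposed to compound for 60 hours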
Streptococcus = assay: Group A Streptococcus viability loss, dose response, counter-screen for streptokinase expression inhibitor project, luminescence, BacTiterGlo (AID 1915); type: functional, organism-based;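 also: potency for reduction of bacterial viability or growth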
[8] = target: T2, Orexin/Hypocretin receptor type 1 (Homo sapiens, UniProt O43613); assay: Fluorescence-based cell-based high throughput dose response assay for antagonists of the orexin 1 receptor (OX1R; HCRTR1). [Related pubchem assays (depositor defined):AID434989, AID435008, AID463079, AID485270, AID492963, AID492964, AID492965, AID493232, AID504717, AID504718]; type: functional
T2 sequence (O43613 whole entry): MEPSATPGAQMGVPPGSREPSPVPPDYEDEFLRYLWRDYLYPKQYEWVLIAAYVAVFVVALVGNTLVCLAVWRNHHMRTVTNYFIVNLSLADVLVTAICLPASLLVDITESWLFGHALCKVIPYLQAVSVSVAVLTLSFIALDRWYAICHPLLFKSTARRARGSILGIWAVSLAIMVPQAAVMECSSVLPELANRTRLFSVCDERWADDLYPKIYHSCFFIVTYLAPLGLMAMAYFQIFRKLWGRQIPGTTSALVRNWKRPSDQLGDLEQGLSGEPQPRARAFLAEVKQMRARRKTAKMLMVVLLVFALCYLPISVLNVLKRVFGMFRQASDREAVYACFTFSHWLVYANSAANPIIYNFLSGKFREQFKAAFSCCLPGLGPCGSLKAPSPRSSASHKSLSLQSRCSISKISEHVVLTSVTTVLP

CHO-K1 = assay: Counterscreen for antagonists of the orexin 1 receptor (OX1R; HCRTR1): Homogeneous time resolved fluorescence (HTRF)-based cell-based dose response assay to identify antagonists of the parental CHO-K1 cell line. [Related pubchem assays (depositor defined):AID434989, AID435008, AID463079, AID485270, AID492963, AID492964, AID492965, AID493232, AID504699, AID504701]; type: functional; details: Cricetulus griseus;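 also: potency for inhibition of ATP-stimulated IP1 production as antagonists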
[9] = target: Dual specificity mitogen-activated protein kinase kinase 1 (Homo sapiens, UniProt Q02750); assay: Navigating the Kinome. Panel member name: MAP2K1; type: functional
[10] = target: Cyclin-dependent kinase 5 (Homo sapiens, UniProt Q00535); type: functional;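 also: CDK5 measured as one member of a kinase profiling panel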
Activin receptor type-1 = Activin receptor type-1 (Homo sapiens, UniProt Q04771); assay: Navigating the Kinome. Panel member name: ACVR1; type: functional
[11] = target: Mitogen-activated protein kinase 14 (Homo sapiens, UniProt Q16539); type: functional;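 also: part of a kinome-wide panel, MAPK14 entry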
[12] = target: Macrophage colony-stimulating factor 1 receptor (Homo sapiens, UniProt P07333); type: functional;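 also: value comes from the Navigating the Kinome screening panel, CSF1R member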
[13] = target: Mitogen-activated protein kinase 9 (Homo sapiens, UniProt P45984); type: functional;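 also: value from a kinome panel profiling assay, MAPK9 panel entry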
[14] = target: Serine/threonine-protein kinase PLK4 (Homo sapiens, UniProt O00444); type: functional;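 also: PLK4 measured as one member of a kinome-wide kinase profiling panel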
Aurora kinase B = Aurora kinase B (Homo sapiens, UniProt Q96GD4); type: functional
[15] = target: Serine/threonine-protein kinase 17A (Homo sapiens, UniProt Q9UEE5); type: functional
[16] = target: Serine/threonine-protein kinase PAK 4 (Homo sapiens, UniProt O96013); type: functional;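 also: value obtained within a kinome profiling panel in which PAK4 was one of the panel members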
[17] = target: Testis-specific serine/threonine-protein kinase 2 (Homo sapiens, UniProt Q96PF2); type: functional;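 also: part of the Navigating the Kinome panel, target entry STK22B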
[18] = target: Tyrosine-protein kinase ABL1 (Homo sapiens, UniProt P00519); type: functional
[19] = target: Protein kinase C zeta type (Homo sapiens, UniProt Q05513); type: functional;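 also: measured as one member of a broad kinase profiling panel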
[20] = target: Calcium/calmodulin-dependent protein kinase type II subunit gamma (Homo sapiens, UniProt Q13555); type: functional
[21] = target: cAMP-dependent protein kinase catalytic subunit PRKX (Homo sapiens, UniProt P51817); type: functional
[22] = target: Insulin-like growth factor 1 receptor (Homo sapiens, UniProt P08069); assay: Navigating the Kinome. Panel member name: IGF1R; type: functional
[23] = target: Receptor-type tyrosine-protein kinase FLT3 (Homo sapiens, UniProt P36888); type: functional;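 also: FLT3 was tested as one member of a kinome-wide kinase panel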
[24] = target: Proto-oncogene tyrosine-protein kinase Src (Homo sapiens, UniProt P12931); type: functional;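 also: SRC entry within a kinome-wide kinase profiling panel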
[25] = target: Fibroblast growth factor receptor 1 (Homo sapiens, UniProt P11362); type: functional
[26] = target: Mitogen-activated protein kinase 12 (Homo sapiens, UniProt P53778); type: functional;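 also: measured as one member of a kinome-wide kinase profiling panel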
Activated CDC42 kinase 1 = Activated CDC42 kinase 1 (Homo sapiens, UniProt Q07912); assay: Navigating the Kinome. Panel member name: ACK1; type: functional
[27] = target: Dual specificity tyrosine-phosphorylation-regulated kinase 1A (Homo sapiens, UniProt Q13627); type: functional;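 also: measured against DYRK1A as one member of a broad kinome profiling panel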

Chain of Tyrosine-protein kinase ABL1 (P00519 whole entry): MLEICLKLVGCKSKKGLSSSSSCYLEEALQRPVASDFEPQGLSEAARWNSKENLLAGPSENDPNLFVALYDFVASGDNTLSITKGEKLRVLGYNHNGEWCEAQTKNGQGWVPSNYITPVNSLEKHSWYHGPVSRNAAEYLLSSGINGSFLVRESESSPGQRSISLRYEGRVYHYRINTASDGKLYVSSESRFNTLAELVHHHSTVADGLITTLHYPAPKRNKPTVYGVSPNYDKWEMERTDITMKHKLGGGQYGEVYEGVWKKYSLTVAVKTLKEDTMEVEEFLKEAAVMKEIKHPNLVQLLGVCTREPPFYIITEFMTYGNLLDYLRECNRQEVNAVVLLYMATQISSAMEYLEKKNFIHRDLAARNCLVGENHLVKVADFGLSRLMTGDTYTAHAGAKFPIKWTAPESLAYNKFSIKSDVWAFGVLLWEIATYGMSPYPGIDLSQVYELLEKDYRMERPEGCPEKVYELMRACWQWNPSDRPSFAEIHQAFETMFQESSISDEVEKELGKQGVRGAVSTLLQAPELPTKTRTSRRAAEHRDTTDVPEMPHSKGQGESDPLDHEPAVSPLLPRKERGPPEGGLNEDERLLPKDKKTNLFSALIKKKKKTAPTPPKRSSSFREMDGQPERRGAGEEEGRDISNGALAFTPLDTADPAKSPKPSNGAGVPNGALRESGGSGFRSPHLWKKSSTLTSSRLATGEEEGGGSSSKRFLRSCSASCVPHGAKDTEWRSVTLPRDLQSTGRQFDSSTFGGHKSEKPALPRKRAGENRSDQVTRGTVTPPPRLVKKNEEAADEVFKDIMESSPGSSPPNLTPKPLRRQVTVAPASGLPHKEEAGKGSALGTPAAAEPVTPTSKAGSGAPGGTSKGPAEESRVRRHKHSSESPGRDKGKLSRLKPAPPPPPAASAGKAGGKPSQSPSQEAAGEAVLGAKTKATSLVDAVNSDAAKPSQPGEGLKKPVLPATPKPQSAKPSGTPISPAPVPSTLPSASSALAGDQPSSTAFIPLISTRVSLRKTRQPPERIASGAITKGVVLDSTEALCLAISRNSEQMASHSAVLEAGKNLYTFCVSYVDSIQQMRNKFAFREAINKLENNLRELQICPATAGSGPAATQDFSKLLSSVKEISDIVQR
Chain of Dual specificity mitogen-activated protein kinase kinase 1 (Q02750 whole entry): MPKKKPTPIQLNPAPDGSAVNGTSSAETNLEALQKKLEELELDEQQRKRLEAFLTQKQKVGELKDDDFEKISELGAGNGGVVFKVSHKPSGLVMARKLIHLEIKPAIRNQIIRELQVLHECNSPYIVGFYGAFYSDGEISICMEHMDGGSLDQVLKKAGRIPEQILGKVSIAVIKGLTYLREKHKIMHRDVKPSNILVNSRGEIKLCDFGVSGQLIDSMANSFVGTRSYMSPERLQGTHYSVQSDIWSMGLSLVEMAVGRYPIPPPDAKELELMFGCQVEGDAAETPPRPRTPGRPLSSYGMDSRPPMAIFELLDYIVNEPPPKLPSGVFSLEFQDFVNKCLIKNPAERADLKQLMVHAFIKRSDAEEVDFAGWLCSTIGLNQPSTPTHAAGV
Chain of Protein kinase C zeta type (Q05513 whole entry): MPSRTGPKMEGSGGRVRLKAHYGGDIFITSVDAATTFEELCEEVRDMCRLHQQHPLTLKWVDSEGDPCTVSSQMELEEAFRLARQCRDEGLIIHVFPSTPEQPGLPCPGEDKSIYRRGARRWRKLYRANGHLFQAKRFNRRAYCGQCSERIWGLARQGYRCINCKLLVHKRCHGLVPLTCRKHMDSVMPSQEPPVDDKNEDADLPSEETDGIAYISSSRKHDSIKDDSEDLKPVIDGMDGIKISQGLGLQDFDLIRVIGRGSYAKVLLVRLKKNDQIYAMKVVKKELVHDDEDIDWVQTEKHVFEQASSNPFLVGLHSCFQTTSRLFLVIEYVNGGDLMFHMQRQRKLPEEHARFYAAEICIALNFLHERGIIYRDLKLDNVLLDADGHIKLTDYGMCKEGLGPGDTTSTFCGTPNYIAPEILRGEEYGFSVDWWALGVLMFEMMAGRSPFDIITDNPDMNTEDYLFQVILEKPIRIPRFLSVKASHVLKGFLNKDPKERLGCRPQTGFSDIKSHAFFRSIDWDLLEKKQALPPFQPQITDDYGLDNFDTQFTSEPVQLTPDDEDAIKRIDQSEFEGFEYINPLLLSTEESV
Chain of Cyclin-dependent kinase 5 (Q00535 whole entry): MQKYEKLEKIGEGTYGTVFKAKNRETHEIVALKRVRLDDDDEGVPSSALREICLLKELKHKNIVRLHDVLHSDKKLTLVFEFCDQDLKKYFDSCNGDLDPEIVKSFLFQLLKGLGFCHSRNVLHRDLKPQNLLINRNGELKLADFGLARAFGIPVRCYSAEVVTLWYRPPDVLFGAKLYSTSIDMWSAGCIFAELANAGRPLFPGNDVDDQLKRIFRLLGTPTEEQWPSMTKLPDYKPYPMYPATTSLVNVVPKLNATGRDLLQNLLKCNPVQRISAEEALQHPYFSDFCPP
Chain of cAMP-dependent protein kinase catalytic subunit PRKX (P51817 whole entry): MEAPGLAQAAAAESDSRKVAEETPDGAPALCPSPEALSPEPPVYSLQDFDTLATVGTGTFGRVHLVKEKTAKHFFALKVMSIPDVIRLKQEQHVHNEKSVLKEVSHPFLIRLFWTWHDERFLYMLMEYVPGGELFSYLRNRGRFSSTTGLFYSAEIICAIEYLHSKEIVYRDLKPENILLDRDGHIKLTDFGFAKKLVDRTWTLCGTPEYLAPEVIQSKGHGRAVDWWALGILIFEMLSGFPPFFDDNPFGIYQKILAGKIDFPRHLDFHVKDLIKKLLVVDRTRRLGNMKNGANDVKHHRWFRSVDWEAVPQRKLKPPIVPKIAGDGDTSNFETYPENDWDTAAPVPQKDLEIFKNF
Chain of Aurora kinase B (Q96GD4 whole entry): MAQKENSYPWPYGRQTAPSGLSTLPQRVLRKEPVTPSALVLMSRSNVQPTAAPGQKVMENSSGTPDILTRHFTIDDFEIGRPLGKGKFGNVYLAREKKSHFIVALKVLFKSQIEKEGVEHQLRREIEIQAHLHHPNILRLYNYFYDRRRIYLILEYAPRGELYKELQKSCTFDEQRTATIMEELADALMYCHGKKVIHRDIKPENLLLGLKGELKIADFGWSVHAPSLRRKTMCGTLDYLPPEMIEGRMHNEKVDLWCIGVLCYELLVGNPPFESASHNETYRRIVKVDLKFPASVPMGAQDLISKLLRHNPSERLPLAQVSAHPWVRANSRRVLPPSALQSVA
Chain of Insulin-like growth factor 1 receptor (P08069 31-736 limits assumed): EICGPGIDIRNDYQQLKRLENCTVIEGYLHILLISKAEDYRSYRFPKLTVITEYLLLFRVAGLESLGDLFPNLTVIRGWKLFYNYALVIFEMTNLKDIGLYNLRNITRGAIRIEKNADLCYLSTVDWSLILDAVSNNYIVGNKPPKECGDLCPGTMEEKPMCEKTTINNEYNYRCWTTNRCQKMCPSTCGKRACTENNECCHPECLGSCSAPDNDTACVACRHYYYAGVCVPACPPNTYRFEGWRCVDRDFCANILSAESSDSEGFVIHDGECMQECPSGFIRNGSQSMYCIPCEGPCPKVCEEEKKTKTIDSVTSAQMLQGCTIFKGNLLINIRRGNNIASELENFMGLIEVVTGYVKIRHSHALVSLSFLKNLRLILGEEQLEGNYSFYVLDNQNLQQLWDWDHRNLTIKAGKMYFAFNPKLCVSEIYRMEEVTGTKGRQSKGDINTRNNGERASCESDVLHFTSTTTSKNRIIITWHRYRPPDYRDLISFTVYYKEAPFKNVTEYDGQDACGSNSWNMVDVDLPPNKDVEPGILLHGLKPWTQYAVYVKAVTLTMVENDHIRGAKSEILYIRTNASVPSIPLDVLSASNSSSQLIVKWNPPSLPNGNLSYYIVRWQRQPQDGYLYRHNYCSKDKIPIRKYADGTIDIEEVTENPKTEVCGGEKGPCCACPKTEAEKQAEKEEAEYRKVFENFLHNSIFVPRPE
Chain of Insulin-like growth factor 1 receptor (P08069 741-1367 limits assumed): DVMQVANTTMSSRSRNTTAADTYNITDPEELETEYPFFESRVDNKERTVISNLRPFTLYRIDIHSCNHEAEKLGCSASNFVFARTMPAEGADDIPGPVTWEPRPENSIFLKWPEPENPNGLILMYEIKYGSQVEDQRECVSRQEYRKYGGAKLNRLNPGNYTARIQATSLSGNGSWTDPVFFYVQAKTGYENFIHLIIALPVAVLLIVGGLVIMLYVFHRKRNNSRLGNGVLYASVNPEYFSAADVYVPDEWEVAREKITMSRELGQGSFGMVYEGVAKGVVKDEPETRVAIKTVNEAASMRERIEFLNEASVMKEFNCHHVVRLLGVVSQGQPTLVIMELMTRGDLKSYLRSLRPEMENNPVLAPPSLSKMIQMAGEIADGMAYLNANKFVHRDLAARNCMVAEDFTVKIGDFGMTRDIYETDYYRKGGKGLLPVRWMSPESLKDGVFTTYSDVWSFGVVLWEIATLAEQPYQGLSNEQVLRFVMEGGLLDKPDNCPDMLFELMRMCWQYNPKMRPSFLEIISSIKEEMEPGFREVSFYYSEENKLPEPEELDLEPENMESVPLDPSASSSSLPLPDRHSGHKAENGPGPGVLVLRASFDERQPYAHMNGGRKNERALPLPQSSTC
Chain of Mitogen-activated protein kinase 9 (P45984 whole entry): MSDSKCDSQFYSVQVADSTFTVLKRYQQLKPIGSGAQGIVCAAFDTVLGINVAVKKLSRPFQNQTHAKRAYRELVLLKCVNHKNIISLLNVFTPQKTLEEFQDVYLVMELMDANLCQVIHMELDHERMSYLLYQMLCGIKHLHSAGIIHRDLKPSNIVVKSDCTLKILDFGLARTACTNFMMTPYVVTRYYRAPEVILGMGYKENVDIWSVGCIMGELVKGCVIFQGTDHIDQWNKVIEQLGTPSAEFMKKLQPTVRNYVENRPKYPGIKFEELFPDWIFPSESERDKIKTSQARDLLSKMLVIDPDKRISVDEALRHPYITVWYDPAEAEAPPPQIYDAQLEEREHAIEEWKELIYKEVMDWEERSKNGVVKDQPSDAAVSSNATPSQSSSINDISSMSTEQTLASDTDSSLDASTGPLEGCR

Structure (SMILES): C=CCNC1=C(Cl)C(=O)c2ccccc2C1=O
AC50 [1]: 1700 nM (active) | AC50 [2]: 735 nM (active) | AC50 [3]: > 70000 nM (inactive) | AC50 [4]: 5580 nM (active) | AC50 (INS1): 7640 nM (active) | AC50 [5]: 53500 nM (active)

Structure (SMILES): CCOC(=O)C(C(=O)OCC)c1cc(Br)c2noc3c2c1C(=O)c1ccccc1-3
EC50 [6]: 9230 nM (active) | EC50 [7]: 4390 nM (active) | EC50 (Streptococcus): > 150000 nM (not active)

Structure (SMILES): CN(C)c1ccc(-c2nnc(-c3cccs3)o2)cc1
IC50 [8]: > 49700 nM (inactive) | IC50 (CHO-K1): > 66200 nM (inactive)

Ki [9]: 1260 nM (active) | Ki [10]: 12.6 nM (active) | Ki (Activin receptor type-1): 1000 nM (active) | Ki [11]: > 3980 nM (inactive) | Ki [12]: > 1580 nM (inactive) | Ki [13]: 251 nM (active) | Ki [14]: 79.4 nM (active) | Ki (Aurora kinase B): 200 nM (active) | Ki [15]: 50.1 nM (active) | Ki [16]: 501 nM (active) | Ki [17]: 79.4 nM (active) | Ki [18]: > 631 nM (inactive) | Ki [19]: > 7940 nM (inactive) | Ki [20]: 316 nM (active) | Ki [21]: 50.1 nM (active) | Ki [22]: > 2000 nM (inactive) | Ki [23]: > 1260 nM (inactive) | Ki [24]: 316 nM (active) | Ki [25]: 501 nM (active) | Ki [26]: 631 nM (active) | Ki (Activated CDC42 kinase 1): > 3980 nM (inactive) | Ki [27]: 100 nM (active)
Structure (SMILES): COc1ccc(C(=O)Nc2n[nH]c3ccc(-c4cn(Cc5ccccc5)nn4)cc23)cc1OC
